In ChEMBL document CHEMBL5244230, “Artemisinin-derived hybrids and their anticancer activity” (Eur J Med Chem, 2020):
pIC50: −log10 of the molar value. Values after ≈ are worked out from the molar mass of the structure shown.

How the values were obtained:
[1] = system: HeLa; assay: Potency index, ratio of artesunate IC50 to test compound IC50 for antiproliferative activity against human HeLA cells assessed as inhibition of cell growth; type: functional
[2] = system: HCT-116; assay: Potency index, ratio of artesunate IC50 to test compound IC50 for antiproliferative activity against human HCT-116 cells assessed as inhibition of cell growth; type: functional
[3] = system: HCT-116; assay: Antiproliferative activity against human HCT-116 cells; type: functional, cell-based
[4] = system: HeLa; assay: Antiproliferative activity against human HeLa cells; type: functional, cell-based
[5] = Antiproliferative activity against human 1205Lu cells; type: functional, cell-based
[6] = Cytotoxicity against human HFF cells; type: toxicity, cell-based
[7] = Potency index, ratio of artesunate IC50 to test compound IC50 for antiproliferative activity against human 1205Lu cells assessed as inhibition of cell growth; type: functional
[8] = Cytotoxicity against CHO cells; type: toxicity, cell-based, Cricetulus griseus; conditions: Chinese hamster
[9] = system: MCF7; assay: Anticancer activity against human MCF7 cells; type: functional, cell-based
[10] = system: TK-10; assay: Anticancer activity against human TK-10 cells; type: functional, cell-based
[11] = system: UACC-62; assay: Anticancer activity against human UACC-62 cells; type: functional, cell-based
[12] = system: TK-10; assay: Anticancer activity against human TK-10 cells assessed as total growth inhibition; type: functional
[13] = system: UACC-62; assay: Anticancer activity against human UACC-62 cells assessed as total growth inhibition; type: functional
[14] = system: MCF7; assay: Anticancer activity against human MCF7 cells assessed as total growth inhibition; type: functional
[15] = Blood clearance in rat at 100 mg/kg, po; type: ADME, organism-based
[16] = system: C2G cell line; assay: Antiproliferative activity against mouse C2G cell line; type: functional, cell-based
[17] = system: HL-60; assay: Antiproliferative activity against human HL-60 cells; type: functional, cell-based
[18] = system: HepG2; assay: Antiproliferative activity against human HepG2 cells; type: functional, cell-based
[19] = system: HeLa; assay: Antiproliferative activity against human HeLa cells assessed as reduction in cell viability; type: functional, cell-based
[20] = system: Leukemia cell; assay: Antiproliferative activity against human Leukemia cell assessed as reduction in cell viability; type: functional, cell-based
[21] = system: HeLa; assay: Cytotoxicity against human HeLa cells assessed as cell viability incubated for 48 hrs by MTT assay; type: functional, cell-based
[22] = system: EL4; assay: Antiproliferative activity against mouse EL4 cells; type: functional, cell-based
[23] = system: HT-29; assay: Antiproliferative activity against human HT-29 cells; type: functional, cell-based
[24] = system: Plasmodium falciparum; assay: Antiplasmodial activity against Plasmodium falciparum K1; type: functional, organism-based
[25] = system: Plasmodium falciparum; assay: Antiplasmodial activity against Plasmodium falciparum HB3; type: functional, organism-based
[26] = system: Leukemia cell; assay: Antiproliferative activity against human Leukemia cell; type: functional
[27] = system: Colon cell line; assay: Antiproliferative activity against human Colon cell line; type: functional
[28] = system: Melanoma cell line; assay: Antiproliferative activity against human Melanoma cell; type: functional
[29] = system: Prostatic carcinoma cell; assay: Antiproliferative activity against human Prostatic carcinoma cell; type: functional
[30] = system: MCF7; assay: Antiproliferative activity against doxorubicin resistant human MCF7 cells; type: functional, cell-based
[31] = Antiproliferative activity against mouse P388 cells assessed as reduction in cell viability measured after 72 hrs; type: functional, cell-based; conditions: 72 h
[32] = system: HL-60; assay: Antiproliferative activity against human HL-60 cells assessed as reduction in cell viability measured after 72 hrs; type: functional, cell-based; conditions: HL-60, 72 h
[33] = system: P388/ADR; assay: Antiproliferative activity against mouse P388/ADR cells assessed as reduction in cell viability measured after 72 hrs; type: functional, cell-based; conditions: 72 h
[34] = system: P388; assay: Potency index, ratio of test compound IC50 to dihydroartemisinin IC50 for antiproliferative activity against mouse P388 cells assessed as reduction in cell viability measured after 72 hrs; type: functional
[35] = system: HL-60; assay: Potency index, ratio of test compound IC50 to dihydroartemisinin IC50 for antiproliferative activity against human HL-60 cells assessed as reduction in cell viability measured after 72 hrs; type: functional
[36] = system: P388/ADR; assay: Potency index, ratio of test compound IC50 to dihydroartemisinin IC50 for antiproliferative activity against mouse P388/ADR cells assessed as reduction in cell viability measured after 72 hrs; type: functional

With `C[C@H]1[C@@H](CC(C[C@H]2O[C@@H]3O[C@@]4(C)CC[C@H]5[C@H](C)CC[C@@H]([C@H]2C)[C@@]35OO4)CS(=O)(=O)c2ccc(CO)cc2)O[C@@H]2O[C@@]3(C)CC[C@H]4[C@H](C)CC[C@@H]1[C@@]24OO3` (stereo not given in full) the “Ratio IC50” value [1] was 12.6, the “Ratio IC50” value [2] was 12.6 and the pIC50 [3] was 7.15. For the same compound, the pIC50 [4] was 7.15, the pIC50 [5] was 7.15 and the pIC50 [6] was 4.24. For the same compound, the “Ratio IC50” value [7] was 12.6.

For `C[C@H]1[C@@H](OCCN(CCCNc2ccnc3cc(Cl)ccc23)CCO[C@H]2O[C@@H]3O[C@@]4(C)CC[C@H]5[C@H](C)CC[C@@H]([C@H]2C)[C@@]35OO4)O[C@@H]2O[C@@]3(C)CC[C@H]4[C@H](C)CC[C@@H]1[C@@]24OO3`, the pIC50 [8] was 6.17, the GI50 [9] was 30 nM and the GI50 [10] was 30 nM. The GI50 [11] was 30 nM, the TGI [12] was 2210 nM and the TGI [13] was 2210 nM. It also gave a TGI [14] of 2210 nM and a CL/F [15] of 184 L/h/kg.

Compound `Nc1ccn([C@@H]2O[C@H](CO)[C@@H](O)C2(F)F)c(=O)n1` [GEMCITABINE] has a pIC50 [16] of 8.43.

`C[C@H]1[C@@H](OCC[N+]2(CCO[C@H]3O[C@@H]4O[C@@]5(C)CC[C@H]6[C@H](C)CC[C@@H]([C@H]3C)[C@@]46OO5)CCN(CCNc3ccnc4cc(Cl)ccc34)CC2)O[C@@H]2O[C@@]3(C)CC[C@H]4[C@H](C)CC[C@@H]1[C@@]24OO3.[Br-]` gave a pIC50 [8] of 4.13, a GI50 [9] of 30 nM and a GI50 [10] of 30 nM. It also gave a GI50 [11] of 30 nM, a TGI [12] of 2210 nM and a TGI [13] of 2210 nM. It also gave a TGI [14] of 2210 nM and a CL/F [15] of 287 L/h/kg.

`C[C@H]1[C@@H](NC(=O)CCCCCCC(=O)NO)O[C@@H]2O[C@@]3(C)CC[C@H]4[C@H](C)CC[C@@H]1[C@@]24OO3` (racemic) showed an IC50 [9] of 1.28 mg/L, an IC50 [17] of 1.28 mg/L (≈ 2.82 µM) and an IC50 [18] of 1.28 mg/L (≈ 2.82 µM).

`C[C@H]1[C@H](OC(=O)CCC(=O)O)O[C@@H]2O[C@@]3(C)CC[C@H]4[C@H](C)CC[C@@H]1[C@@]24OO3` [ARTESUNATE] showed a pIC50 [19] of 4.95, a pIC50 [20] of 5.16 and a pIC50 [21] of 6.30. For the same compound, the pIC50 [5] was 5.15.

Work on `C[C@H]1[C@@H](CCSCC[C@H]2O[C@@H]3O[C@@]4(C)CC[C@H]5[C@H](C)CC[C@@H]([C@H]2C)[C@@]35OO4)O[C@@H]2O[C@@]3(C)CC[C@H]4[C@H](C)CC[C@@H]1[C@@]24OO3` yielded a pIC50 [9] of 7.77, a pIC50 [22] of 7.77 and a pIC50 [23] of 7.77.

Compound `COP(=O)(OCC[C@H]1[C@@H](C)O[C@@H]2O[C@@]3(C)CC[C@H]4[C@H](C)CC[C@@H]1[C@@]24OO3)OCC[C@H]1O[C@@H]2O[C@@]3(C)CC[C@H]4[C@H](C)CC[C@@H]([C@H]1C)[C@@]24OO3` (stereo not given in full) has a pIC50 [24] of 10.05, a pIC50 [25] of 10.05 and a GI50 [26] of under 10 nM. It also gave a GI50 [27] of under 10 nM, a GI50 [28] of under 10 nM and a GI50 [29] of under 10 nM.

Work on `C[C@H]1[C@H](CCS(=O)(=O)CCCS(=O)(=O)CC[C@H]2O[C@@H]3O[C@@]4(C)CC[C@H]5[C@H](C)CC[C@@H]([C@H]2C)[C@@]35OO4)O[C@@H]2O[C@@]3(C)CC[C@H]4[C@H](C)CC[C@@H]1[C@@]24OO3` yielded a pIC50 [9] of 6.42, a pIC50 [22] of 6.42 and a pIC50 [23] of 6.42.

Work on `C[C@H]1[C@@H](Oc2ccc(CCn3ccnn3)cc2)O[C@@H]2O[C@@]3(C)CC[C@H]4[C@H](C)CC[C@@H]1[C@@]24OO3` yielded a pIC50 [30] of 7.33, a pIC50 [31] of 7.33 and a pIC50 [32] of 7.19. The pIC50 [33] was 5.54, the “Ratio IC50” value [34] was 4.6 and the “Ratio IC50” value [35] was 4.6. The “Ratio IC50” value [36] was 4.6.
